Laboratory results from publication PMC10290961 (European Journal of Medicinal Chemistry, 2023).

Assays:
[1] = Stability in GSH environment; type: physicochemical; details: 20 mM GSH, pH 7.4 phosphate buffer, 37 °C
[2] = for decomposition in SGF: 37 °C, within 120 min
[3] = Transmission electron microscopy; type: physicochemical; details: for micelle formation (TEM): 50.0 μM, pH 7.4 phosphate buffer
AdV5 = type: cell-based, adenovirus (AdV) 5; details: A549 cells

Question: Which “fold TI relative to BCV” value (VACV) does the source give for `CCCCCCCCCCCCCCSSCCOP(=O)(O)CO[C@H](CO)Cn1ccc(N)nc1=O.N` [Compound 1c, 2-(tetradecyldisulfanyl)ethyl hydrogen ((((S)-1-(4-amino-2-oxopyrimidin-1(2H)-yl)-3-hydroxypropan-2-yl)oxy)methyl)phosphonate] here?
Answer: The value was 2.8 fold.

Question: What about the “remaining after incubation with GSH” value ([1]; after 360 min) of the same molecule?
Answer: The value was “approximately 13%”.

Question: And the “remaining in SGF” value ([2]; SGF pH 2.0, 37 °C, after 120 min)?
Answer: The value was “approximately 77%”.

Question: What about the “micelle formation (TEM)” value [3] of the same molecule?
Answer: The value was “could form micelles”.

Question: For `CCCCCCCCCCCCCCCCSSCCOP(=O)(O)CO[C@H](CO)Cn1ccc(N)nc1=O.N` [Compound 1d, 2-(hexadecyldisulfanyl)ethyl hydrogen ((((S)-1-(4-amino-2-oxopyrimidin-1(2H)-yl)-3-hydroxylpropan-2-yl)oxy)methyl)phosphonate], which “stability in GSH environment relative to 1c” value [1] is on record?
Answer: The value was “significant enhancement in stability”.

Question: And the “micelle formation (TEM)” value [3]?
Answer: The value was “could form micelles”.

Question: For `CCCCCCCCCCCCCCCCCCSSCCOP(=O)(O)CO[C@H](CO)Cn1ccc(N)nc1=O.N` [Compound 1e, 2-(octadecyldisulfanyl)ethyl hydrogen ((((S)-1-(4-amino-2-oxopyrimidin-1(2H)-yl)-3-hydroxypropan-2-yl)oxy)methyl)phosphonate], which “stability in GSH environment relative to 1c” value [1] is on record?
Answer: Its value is “significant enhancement in stability”.

Question: What about the “micelle formation (TEM)” value [3] of the same molecule?
Answer: Its value is “could form micelles”.

Question: And the “stability of micelles in GSH environment (TEM)” value ([3]; incubated for 4 h in GSH environment)?
Answer: Its value is “could keep stable”.

Question: Which “stability in GSH environment relative to 1c” value [1] does the source give for `CCCCCCCCCCCCCCSSCCCOP(=O)(O)CO[C@H](CO)Cn1ccc(N)nc1=O.N` [Compound 1h, 3-(tetradecyldisulfanyl)propyl hydrogen ((((S)-1-(4-amino-2-oxopyrimidin-1(2H)-yl)-3-hydroxypropan-2-yl)oxy)methyl)phosphonate] here?
Answer: Its value is “significant enhancement in stability”.

Question: For `CCCCCCCCCCCCCCSSCCCCOP(=O)(O)CO[C@H](CO)Cn1ccc(N)nc1=O.N` [Compound 1m, 4-(tetradecyldisulfanyl)butyl hydrogen ((((S)-1-(4-amino-2-oxopyrimidin-1(2H)-yl)-3-hydroxypropan-2-yl)oxy)methyl)phosphonate], which “stability in GSH environment relative to 1c” value [1] is on record?
Answer: The value was “significant enhancement in stability”.

Question: Which “decomposition in SGF” value [2] does the source give for `CCCCCCCCCCCCCCCCSSCCCCOP(=O)(O)CO[C@H](CO)Cn1ccc(N)nc1=O.N` [Compound 1n, 4-(hexadecyldisulfanyl)butyl hydrogen ((((S)-1-(4-amino-2-oxopyrimidin-1(2H)-yl)-3-hydroxypropan-2-yl)oxy)methyl)phosphonate] here?
Answer: Its value is “not decomposed”.

Question: And the “micelle formation (TEM)” value [3]?
Answer: Its value is “could form micelles”.

Question: Which “TI (therapeutic index, CC50/IC50)” value (VACV) does the source give for `CCCCCCCCSSCCCCCCOP(=O)(O)CO[C@H](CO)Cn1ccc(N)nc1=O.N` [Compound 1o, 6-(octyldisulfanyl)hexyl hydrogen ((((S)-1-(4-amino-2-oxopyrimidin-1(2H)-yl)-3-hydroxypropan-2-yl)oxy)methyl)phosphonate] here?
Answer: Its value is >4.

Question: What does the source list for `CCCCCCCCCCCCSSCCCCCCOP(=O)(O)CO[C@H](CO)Cn1ccc(N)nc1=O.N` [Compound 1q, 6-(dodecyldisulfanyl)hexyl hydrogen ((((S)-1-(4-amino-2-oxopyrimidin-1(2H)-yl)-3-hydroxypropan-2-yl)oxy)methyl)phosphonate]?
Answer: decomposition in SGF [2]: not decomposed; fold increase in TI value compared to BCV (anti-AdV5) (AdV5): 8.9 fold

Question: Which “stability in GSH environment relative to 1c” value [1] does the source give for `CCCCCCCCCCCCCCSSCCCCCCOP(=O)(O)CO[C@H](CO)Cn1ccc(N)nc1=O.N` [Compound 1r, 6-(tetradecyldisulfanyl)hexyl hydrogen ((((S)-1-(4-amino-2-oxopyrimidin-1(2H)-yl)-3-hydroxypropan-2-yl)oxy)methyl)phosphonate] here?
Answer: The value was “significant enhancement in stability”.

Question: What about the “micelle formation (TEM)” value [3] of the same molecule?
Answer: Its value is “could form micelles”.
